Results reported in PubChem BioAssay (NCI).
Values joined by “and” are separate entries in the source; they are usually repeats but may differ in a detail not shown here. Identical values can stand only once.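 Protocol summary: plate cells (96-well), add compound at 5 concentrations, incubate 48 h, interpolate endpoints linearly. GI50 is the concentration that inhibits growth by half. At the TGI there is no net growth.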

Key:
Test in all cases: NCI tumour cell line growth inhibition, 48 h
ACHN renal = test system: ACHN renal
BT-549 breast = test system: BT-549 breast
CAKI-1 renal = test system: CAKI-1 renal
HCT-116 colon = test system: HCT-116 colon
HS 578T breast = test system: HS 578T breast
HT29 colon = test system: HT29 colon
MDA-MB-231 breast = test system: MDA-MB-231 breast
SF-268 CNS = test system: SF-268 CNS
SF-539 CNS = test system: SF-539 CNS
SK-OV-3 ovarian = test system: SK-OV-3 ovarian
SN12C renal = test system: SN12C renal
UO-31 renal = test system: UO-31 renal
A498 renal = test system: A498 renal
SK-MEL-2 melanoma = test system: SK-MEL-2 melanoma

Row | SMILES | TGI (ACHN renal) | TGI (BT-549 breast) | TGI (CAKI-1 renal) | TGI (HCT-116 colon) [µM] | TGI (HS 578T breast) [µM] | TGI (HT29 colon) [µM] | TGI (MDA-MB-231 breast) | TGI (SF-268 CNS) [µM] | TGI (SF-539 CNS) | TGI (SK-OV-3 ovarian) | TGI (SN12C renal) [µM] | TGI (UO-31 renal) [µM] | TGI (A498 renal) | TGI (SK-MEL-2 melanoma) | GI50 (ACHN renal) | GI50 (CAKI-1 renal) | GI50 (MDA-MB-231 breast) | GI50 (SF-539 CNS) | GI50 (SK-MEL-2 melanoma)
1 | N#Cc1nc(-c2ccc(-c3nc(C#N)c(N)o3)cc2)oc1N | > 10 µM | > 10 µM | > 10 µM | > 10 | > 10 | > 10 | > 10 µM | > 10 | > 10 µM | > 10 µM | > 10 | > 10 | – | – | – | – | – | – | –
2 | O=c1[nH]cc(COCC(O)CO)c(=O)[nH]1 (configuration not stated) | > 100 µM | – | > 100 µM | > 100 | – | > 100 | – | > 100 | > 100 µM | > 100 µM | > 100 | > 100 | > 100 µM | > 100 µM | – | – | – | – | –
3 | CN(C(=O)c1cc2c(s1)sc1c(=O)n(C)c3ccccc3c12)c1ccccc1 | 66.6 µM | > 100 µM | 40.8 µM | > 100 | – | > 100 | > 100 µM | – | 59.8 µM | > 100 µM | > 100 | 24.5 | – | > 100 µM | – | – | – | – | –
4 | C=CCN1C(=O)/C(=C/c2ccc(OC)cc2)N=C1SC1OC(COC(C)=O)C(OC(C)=O)C(OC(C)=O)C1OC(C)=O (configuration not stated) | 32.3 µM and > 100 µM | 38.1 µM and 96.1 µM | 33 µM and > 100 µM | > 100 | – | 22.4 | 42.9 µM and > 100 µM | – | 44.5 µM and > 100 µM | 36 µM and > 100 µM | 89.4 | – | > 100 µM and 86.2 µM | 54.8 µM and > 100 µM | 15.4 µM and 77.3 µM | 16 µM and > 100 µM | 18.8 µM and 39.2 µM | 19.9 µM and 42.8 µM | 21.1 µM and 51.7 µM
5 | CNc1cccc2c1C(C)C[C@]1(C)C(=O)Nc3ccccc3[C@H]21 (some centres not stated) | 50.8 µM | – | 63.7 µM | 34.8 | 53.6 | 81.6 | 42.9 µM | > 100 | > 100 µM | – | 48.5 | 52.4 | 43.6 µM | 55.3 µM | – | – | – | – | –
6 | COc1cc(/C=C2\C(=O)N(c3ccc(NC(C)=O)cc3)C(c3ccccc3)S2(=O)=O)cc(OC)c1OC (configuration not stated) | > 100 µM | > 100 µM | > 100 µM | > 100 | – | > 100 | > 100 µM | – | > 100 µM | > 100 µM | > 100 | > 100 | > 100 µM | > 100 µM | – | – | – | – | –
7 | CC(CC(C)[C@H]1CCC2[C@H]3C(CC(=O)[C@@]21C)[C@@]1(C)CCC(O)C[C@H]1C[C@@H]3O)C(=O)O (some centres not stated) | > 100 µM | > 100 µM | > 100 µM | > 100 | – | > 100 | > 100 µM | > 100 | > 100 µM | – | > 100 | > 100 | > 100 µM | > 100 µM | – | – | – | – | –
8 | O=C1O/C(=C(/Cl)c2c3ccccc3cc3ccccc23)c2ccccc21 | 82.9 µM | – | > 100 µM | 9.58 | 59.8 | 43.1 | 40.3 µM | > 100 | 47.8 µM | > 100 µM | > 100 | > 100 | 80.2 µM | 51.2 µM | – | – | – | – | –
9 | COc1ccc(-c2cc(=O)c3ccc(F)cc3[nH]2)cc1 | > 100 µM | – | – | > 100 | – | > 100 | – | > 100 | > 100 µM | > 100 µM | > 100 | > 100 | – | – | – | – | – | – | –
10 | Oc1ccc2ccccc2c1NCn1nc(CCCCCCCCc2nn(CNc3c(O)ccc4ccccc34)c(=S)o2)oc1=S | > 100 µM | > 100 µM | > 100 µM | 79.4 | – | > 100 | > 100 µM | > 100 | – | > 100 µM | > 100 | > 100 | > 100 µM | > 100 µM | – | – | – | – | –
11 | C=CCN(N=O)C(=O)N(CCCCC(NC(C)=O)C(=O)NCc1ccccc1)Cc1ccccc1 (configuration not stated) | > 100 µM | – | > 100 µM | – | – | 36.8 | – | > 100 | > 100 µM | > 100 µM | > 100 | 91.7 | > 100 µM | > 100 µM | – | – | – | – | –
12 | CC1(C)CC2C(/C1=N/O)C1(C)CCCC2(C)C1O (configuration not stated) | > 100 µM | > 100 µM | > 100 µM | > 100 | > 100 | > 100 | – | > 100 | – | > 100 µM | > 100 | > 100 | – | > 100 µM | – | – | – | – | –
13 | O=C1COc2cc3c(cc2N1)SCCC(=O)N3 | – | – | > 100 µM | > 100 | – | > 100 | – | > 100 | > 100 µM | > 100 µM | > 100 | > 100 | > 100 µM | > 100 µM | – | – | – | – | –
14 | CCNC1=C(NC(=O)c2ccc(OC)cc2)C(=O)c2ccccc2C1=O | > 100 µM | > 100 µM | – | > 100 | > 100 | 76.9 | > 100 µM | > 100 | > 100 µM | > 100 µM | > 100 | – | – | – | – | – | – | – | –
15 | CC1CN=C(NS(=O)(=O)c2cc(C(=O)Nc3ccccc3)c(Cl)cc2S)NN1 (configuration not stated) | > 100 µM | > 100 µM | > 100 µM | > 100 | – | > 100 | > 100 µM | > 100 | > 100 µM | > 100 µM | > 100 | > 100 | 57.4 µM | 71.6 µM | – | – | – | – | –
16 | [O-]/[N+](=N/c1ncc(-c2ccccc2)cn1)c1ncc(-c2ccccc2)cn1 | > 100 µM | – | > 100 µM | > 100 | > 100 | > 100 | > 100 µM | > 100 | > 100 µM | > 100 µM | > 100 | > 100 | > 100 µM | > 100 µM | – | – | – | – | –
17 | O=C(Nc1ccccc1[N+](=O)[O-])C(=O)C(C(=O)c1ccccc1-c1ccccc1)C1OC(=O)c2ccccc21 (configuration not stated) | > 100 µM | – | > 100 µM | 38.4 | – | 59.2 | – | 41 | 29.2 µM | > 100 µM | 30.3 | 29.8 | 37.8 µM | 65.2 µM | – | – | – | – | –
18 | O=C(NN1C(=O)C(Cl)C1c1cccc(Cl)c1)c1ccccc1O (configuration not stated) | > 100 µM | – | – | > 100 | – | > 100 | – | > 100 | > 100 µM | > 100 µM | > 100 | > 100 | > 100 µM | > 100 µM | – | – | – | – | –
